# Reference: patent US12128257B2, “Extracts of Isochrysis sp” (SYMRISE AG, priority 2008, dated 2024)
# Tested on: hair follicles
# Test: Hair follicle growth (elongation) in organ culture of scalp hair follicles, image analysis
# Format: cell-based, human
# Conditions: Table 7, day 10 of culture, pooled from two donors
# Description: For each experiment and the control 9-12 follicles were used, plated at the density of 3 hair follicles/well in 24 well plates. Hair follicles were taken from the head of the scalp and transferred for cultivation in sterile 24 well plates using a modified Williams' Medium E. Cultivation took place for nine days, following 18 h of pre-incubation performed in order to select hair follicles suitable to be maintained in culture. Only those follicles showing a good vital stage and a growth of not less than 0.2 mm were used.
# The growth performances observed in the treated hair follicles were compared to a control group, which was cultured in the same culture medium but free from extract supplement.
# […] In order to obtain these supplemented media, the required quantity of dir-MeOH extract was submitted to solvent evaporation and then redissolved again in DMSO. The final concentration of this DMSO-solved extract has been adjusted in order to supplement the experimental media with the desired extract quantity, obtaining at same time a final concentration in DMSO equal to 0.05%. The same concentration of DMSO has also been used in the medium for the culture of the control group.
# The experiments were terminated after 10 days of cultivation (9 days of treatment). The growth of the hair follicles was studied by microphotography and subsequently determined by image analysis. All the hair follicles were photographed every two days.
# 1, were the hair follicle elongation is expressed as percentage ratio between the experimental groups and the untreated control: […]
compound,measurement,setting,value
"CC/C=C\C/C=C\C/C=C\C/C=C\C/C=C\C/C=C\CCC(=O)O [DHA, docosahexaenoic acid]",Growth (%): Elongation in [%] of the control performance,0.003 μg/ml,99.5%
same,Growth (%): Elongation in [%] of the control performance,0.03 μg/ml,93.5%
same,Growth (%): Elongation in [%] of the control performance,0.3 μg/ml,89.3%
